Experimental data taken from patent US20150196514A1, “METHOD OF TREATING CARDIOVASCULAR EVENTS USING COLCHICINE CONCURRENTLY WITH AN ANTITHROMBOTIC DRUG” (Murray and Poole Enterprises Limited, priority 2012, published 2015).

Experiments:
[1] = system: patients with acute pericarditis; settings: at 18 months, colchicine 1.0 to 2.0 mg first day then 0.5 to 1.0 mg/day for 3 months added to conventional treatment, p=0.004; cited from earlier work
[2] = system: patients with a first episode of recurrent pericarditis; settings: at 18 months, colchicine 1.0-2.0 mg first day then 0.5-1.0 mg/d for 6 months added to conventional treatment; cited from earlier work
[3] = system: patients with clinically stable coronary disease; assay: LoDoCo Trial: colchicine 0.5 mg/day added to standard secondary prevention therapies
Procedure: To assess the therapeutic effects of an immediate release formulation in patients with cardiovascular disease, a prospective randomized observer blinded end-point trial was conducted to determine whether adding 0.5 mg/day of colchicine to standard secondary prevention therapies including aspirin and high dose statins reduces the risk of cardiovascular events in patients with objectively diagnosed and clinically stable coronary disease.
Eligible consenting patients with established coronary disease presenting for routine clinical review were randomized to receive colchicine 0.5 mg/day or no colchicine without any other change to their medical therapy. All outcomes were evaluated by an experienced adjudicator blinded to the treatment allocation.
It was planned to recruit a study population that would include 500 patients planned (532 patients randomized as 32 dropped out early), 250 randomized to the control group and 250 patients randomized to treatment who were tolerant of colchicine for at least 4 weeks after the date of their randomization. Patients were eligible for inclusion if they met each of the following criteria: 1) angiographically proven coronary disease; 2) aged 35 to 85 years; 3) clinically stable for at least 6 months, 4) no major competing co-morbidities or contra-indication to colchicine therapy, 5) considered to be compliant with therapy and attending routine cardiology follow up appointments, and 6) willing to be consented and randomized into the study. Patients with a history of bypass surgery were only eligible if they had undergone bypass surgery more than 10 years before, or had angiographic evidence of graft failure or had undergone stenting since their bypass surgery. All patients signed informed consent before randomization.
The randomization sequence was computer generated, kept concealed from the investigators at all times and was managed by a research assistant who had no involvement in the evaluation or management of study patients. […] Despite electing to use the lowest dose of colchicine available, it was anticipated that a number of patients would withdraw from therapy early after randomization due to gastrointestinal side effects. In order to ensure that the requisite number of patients in the treatment arm were actually tolerant of treatment, the protocol allowed for the research assistant to assign a newly recruited patient to treatment if a patient discontinued colchicine due to side effects in the first month. Patients who were intolerant to therapy remained in the study, and were followed in the usual manner and included in the primary intention to treat analysis.
The drug was dispensed by their usual chemist, and if requested, patients were reimbursed for the cost of these scripts. All other treatments were continued as usual.
Patient compliance with treatment and outcome data were collected at routine follow up visits and at the time of any unplanned hospital admission. An acute coronary syndrome (ACS) was defined as either (a) Acute Myocardial Infarction (AMI), as evidenced by acute ischemic chest pain associated with a rise in serum troponin above the upper limit of normal or (b) Unstable Angina (UA), as evidenced by a recent acceleration of the patient's angina unassociated with a rise in serum troponin but associated with angiographic evidence of a change in the patient's coronary anatomy. […] The ACS was characterized as being stent-related if there was evidence of significant in-stent stenosis or acute stent thrombosis. Out of Hospital Cardiac Arrest was defined as either a sudden death as evidenced on the patient's death certificate, or a non-fatal out of hospital cardiac arrest, defined as a recovery from sudden collapse associated with documented asystole, ventricular tachycardia or ventricular fibrillation.

[4] = No treatment (no antithrombotic drug), colchicine group 1
[5] = Treated with Aspirin + clopidogrel + warfarin, colchicine group 2
[6] = Treated with Aspirin + clopidogrel, colchicine group 33
[7] = Treated with Aspirin + warfarin, colchicine group 6
[8] = Treated with Aspirin alone, colchicine group 173
[9] = Treated with Clopidogrel alone or warfarin alone (no aspirin), colchicine group 28
[10] = Treated with Clopidogrel alone, colchicine group 12
[11] = Treated with Warfarin alone, colchicine group 16
[12] = Treated with a least one antiplatelet drug (at least aspirin, clopidogrel or combinations thereof), colchicine group 226
[13] = Treated with at least aspirin, colchicine group 214
[14] = Treated with at least one antithrombotic drugs (at least aspirin, clopidogrel or warfarin or combinations thereof), colchicine group 242
[15] = intention to treat, 282 patients

CC(=O)Oc1ccccc1C(=O)O [aspirin]
recurrence rate [1]: 32.3% | recurrence rate (actuarial rates) [2]: 50.6%

COc1cc2c(c(OC)c1OC)-c1ccc(OC)c(=O)cc1[C@@H](NC(C)=O)CC2 [colchicine, N[5,6,7,9-tetrahydro-1,2,3,10-tetratmethoxy 9-oxobenzo[a]heptalen-7-yl],(S)-acetamide]
recurrence rate [1]: 10.7% | recurrence rate (actuarial rates) [2]: 24.0% | early intolerance due to gastrointestinal side effects, incidence ([3]; 282 randomized to treatment): 11% | Primary Outcome, number of patients [3, 4]: 0 (0%) | Primary Outcome, percent [3, 4]: 0 (0%) | Primary Outcome, number of patients ([3]; Total*, colchicine group 243): 11 | Primary Outcome, percent ([3]; Total*, colchicine group 243): 4.5% | Primary Outcome, number of patients [3, 5]: 0 (0%) | Primary Outcome, percent [3, 5]: 0 (0%) | Primary Outcome, number of patients [3, 6]: 3 | Primary Outcome, percent [3, 6]: 9% | Primary Outcome, number of patients [3, 7]: 0 (0%) | Primary Outcome, percent [3, 7]: 0 (0%) | Primary Outcome, number of patients [3, 8]: 7 | Primary Outcome, percent [3, 8]: 4% | Primary Outcome, number of patients [3, 9]: 1 | Primary Outcome, percent [3, 9]: 3.45% | Primary Outcome, number of patients [3, 10]: 1 | Primary Outcome, percent [3, 10]: 8.3% | Primary Outcome, number of patients [3, 11]: 0 (0%) | Primary Outcome, percent [3, 11]: 0 (0%) | Primary Outcome, number of patients [3, 12]: 11 | Primary Outcome, percent [3, 12]: 4.9% | Primary Outcome, number of patients [3, 13]: 10 | Primary Outcome, percent [3, 13]: 4.67% | Primary Outcome, number of patients [3, 14]: 11 | Primary Outcome, percent [3, 14]: 4.5% | risk of a cardiovascular event, including an ACS, out of hospital cardiac arrest and non-cardio-embolic ischemic stroke ([3]; colchicine 0.5 mg/day added to standard therapy in patients with stable coronary disease): significantly reduces the risk | patients who died of non-cardiac causes ([3]; colchicine group): 4 patients | patients who died ([3]; colchicine group, study period): 4 patients | ACS unrelated to stent disease associated with UA, incidence [3, 15]: 1.8% | ACS unrelated to stent disease associated with an AMI, incidence [3, 15]: 1.4% | ACS unrelated to stent disease, incidence [3, 15]: 3.2% | ACS, incidence [3, 15]: 4.6% | primary outcome, incidence ([3]; intention to treat, 282 patients assigned to colchicine 0.5 mg/day, median follow up 36 months): 5.3% | primary outcome, hazard ratio ([3]; intention to treat, colchicine vs control group, 95% CI 0.18-0.59, p<0.001): 0.33 | ACS unrelated to stent disease associated with UA, patients ([3]; intention to treat, of 282): 5 | ACS unrelated to stent disease associated with an AMI, patients ([3]; intention to treat, of 282): 4 | ACS unrelated to stent disease, patients ([3]; intention to treat, of 282): 9 | patients presenting with an ACS ([3]; intention to treat, of 282): 13 | primary outcome (ACS, out of hospital cardiac arrest or non-cardio-embolic ischemic stroke), patients with event ([3]; intention to treat, of 282 patients assigned to colchicine 0.5 mg/day, median follow up 36 months): 15 patients | early intolerance due to gastrointestinal side effects, patients ([3]; of 282 randomized to treatment): 32 | events (primary outcome), hazard ratio ([3]; on-treatment vs control, 95% CI 0.15-0.56, p<0.001): 0.29 | events (primary outcome), incidence ([3]; on-treatment: compliant and tolerant to therapy beyond the first month, 243 patients): 4.5% | events (primary outcome), patients ([3]; on-treatment: compliant and tolerant to therapy beyond the first month, of 243): 11 | stent related ACS with evidence of acute stent thrombosis, patients ([3]; per group): 2 | stent related ACS with evidence of significant in-stent stenosis, patients ([3]; per group): 2 | number needed to treat ([3]; primary outcome, intention to treat): 11 | out of hospital cardiac arrest and non-cardio-embolic ischemic stroke ([3]; treatment group vs control, infrequent events): reduced | AMI unrelated to stent disease, hazard ratio ([3]; vs control, 95% CI 0.08-0.76, p=0.014): 0.25 | UA unrelated to stent disease, hazard ratio ([3]; vs control, 95% CI 0.10-0.75, p=0.011): 0.27 | ACS unrelated to stent disease, hazard ratio ([3]; vs control, 95% CI 0.12-0.55, p<0.001): 0.26 | ACS, hazard ratio ([3]; vs control, 95% CI 0.18-0.63, p<0.001): 0.33
